# Laboratory results: ChEMBL document CHEMBL1151757, “Synthesis, radiosynthesis, and biological evaluation of fluorine-18-labeled 2beta-carbo(fluoroalkoxy)-3beta-(3'-((Z)-2-haloethenyl)phenyl)nortropanes: candidate radioligands for in vivo imaging of the serotonin transporter with positron emission tomography” (J Med Chem, 2008)
# Columns and labels:
# [1] = Drug uptake in anesthetized cynomolgus monkey brain occipital lobe after 202.5 mins postinjection; type: ADME, organism-based, Macaca fascicularis; conditions: in vivo, 3.375 h
# [2] = Ratio of drug uptake in caudate to cerebellum in awake rhesus monkey after 25 mins postinjection; type: ADME, organism-based, Macaca mulatta; conditions: in vivo
# Putamen [3] = assay: Drug uptake in anesthetized cynomolgus monkey brain putamen after 197.5 mins postinjection; type: ADME, organism-based, Macaca fascicularis; conditions: in vivo
# [4] = Drug uptake in awake rhesus monkey brain medulla after 10.5 mins postinjection; type: ADME, organism-based, Macaca mulatta; conditions: in vivo, 0.175 h
# [5] = Drug uptake in awake rhesus monkey brain midbrain after 7.5 mins postinjection; type: ADME, organism-based, Macaca mulatta; conditions: in vivo, 0.125 h
# Pons [6] = assay: Drug uptake in anesthetized cynomolgus monkey brain pons after 207.5 mins postinjection; type: ADME, organism-based, Macaca fascicularis; conditions: in vivo
# [7] = Drug uptake in awake rhesus monkey brain midbrain after 85 mins postinjection; type: ADME, organism-based, Macaca mulatta; conditions: in vivo
# [8] = Drug uptake in anesthetized cynomolgus monkey brain cerebellum after 182.5 mins postinjection; type: ADME, organism-based, Macaca fascicularis; conditions: in vivo
# Pons [9] = assay: Drug uptake in anesthetized cynomolgus monkey brain pons after 192.5 mins postinjection; type: ADME, organism-based, Macaca fascicularis; conditions: in vivo
# [10] = Drug uptake in awake rhesus monkey brain midbrain after 55 mins postinjection; type: ADME, organism-based, Macaca mulatta; conditions: in vivo
# [11] = Drug uptake in awake rhesus monkey brain midbrain after 105 mins postinjection; type: ADME, organism-based, Macaca mulatta; conditions: in vivo, 1.75 h
# Thalamus [12] = assay: Drug uptake in anesthetized cynomolgus monkey brain thalamus after 192.5 mins postinjection; type: ADME, organism-based, Macaca fascicularis; conditions: in vivo
# [13] = Ratio of drug uptake in pons to cerebellum in awake rhesus monkey after 10.5 mins postinjection; type: ADME, organism-based, Macaca mulatta; conditions: in vivo, 0.175 h
# Pons [14] = assay: Drug uptake in anesthetized cynomolgus monkey brain pons after 202.5 mins postinjection; type: ADME, organism-based, Macaca fascicularis; conditions: in vivo, 3.375 h
# [15] = Drug uptake in awake rhesus monkey brain caudate after 55 mins postinjection; type: ADME, organism-based, Macaca mulatta, Caudate nucleus; conditions: in vivo
# [16] = Drug uptake in awake rhesus monkey brain medulla after 55 mins postinjection; type: ADME, organism-based, Macaca mulatta; conditions: in vivo
# [17] = Drug uptake in awake rhesus monkey brain pons after 65 mins postinjection; type: ADME, organism-based, Macaca mulatta; conditions: in vivo
# [18] = Drug uptake in awake rhesus monkey brain thalamus after 95 mins postinjection; type: ADME, organism-based, Macaca mulatta; conditions: in vivo
# [19] = Ratio of drug uptake in thalamus to cerebellum in awake rhesus monkey after 17.5 mins postinjection; type: ADME, organism-based, Macaca mulatta; conditions: in vivo
# [20] = Drug uptake in awake rhesus monkey brain medulla after 7.5 mins postinjection; type: ADME, organism-based, Macaca mulatta; conditions: in vivo, 0.125 h
# [21] = Ratio of drug uptake in pons to cerebellum in awake rhesus monkey after 7.5 mins postinjection; type: ADME, organism-based, Macaca mulatta; conditions: in vivo, 0.125 h
# Caudate [22] = assay: Drug uptake in anesthetized cynomolgus monkey brain caudate after 197.5 mins postinjection; type: ADME, organism-based, Macaca fascicularis, Caudate nucleus; conditions: in vivo
# [23] = Drug uptake in awake rhesus monkey brain putamen after 65 mins postinjection; type: ADME, organism-based, Macaca mulatta; conditions: in vivo
# [24] = Drug uptake in awake rhesus monkey brain putamen after 75 mins postinjection; type: ADME, organism-based, Macaca mulatta; conditions: in vivo, 1.25 h
# [25] = Drug uptake in awake rhesus monkey brain frontal lobe after 105 mins postinjection; type: ADME, organism-based, Macaca mulatta; conditions: in vivo, 1.75 h
# [26] = Ratio of drug uptake in midbrain to cerebellum in awake rhesus monkey after 7.5 mins postinjection; type: ADME, organism-based, Macaca mulatta; conditions: in vivo, 0.125 h
# [27] = Drug uptake in awake rhesus monkey brain frontal lobe after 65 mins postinjection; type: ADME, organism-based, Macaca mulatta; conditions: in vivo
# [28] = Drug uptake in anesthetized cynomolgus monkey brain cerebellum after 202.5 mins postinjection; type: ADME, organism-based, Macaca fascicularis; conditions: in vivo, 3.375 h
# Midbrain [29] = assay: Drug uptake in anesthetized cynomolgus monkey brain midbrain after 182.5 mins postinjection; type: ADME, organism-based, Macaca fascicularis; conditions: in vivo
# [30] = Ratio of drug uptake in medulla to cerebellum in awake rhesus monkey after 4.5 mins postinjection; type: ADME, organism-based, Macaca mulatta; conditions: in vivo, 0.075 h
# [31] = Drug uptake in anesthetized cynomolgus monkey brain frontal lobe after 197.5 mins postinjection; type: ADME, organism-based, Macaca fascicularis; conditions: in vivo
# [32] = Drug uptake in awake rhesus monkey brain frontal lobe after 13.5 mins postinjection; type: ADME, organism-based, Macaca mulatta; conditions: in vivo, 0.225 h
# [33] = Drug uptake in anesthetized cynomolgus monkey brain cerebellum after 197.5 mins postinjection; type: ADME, organism-based, Macaca fascicularis; conditions: in vivo
# Caudate [34] = assay: Drug uptake in anesthetized cynomolgus monkey brain caudate after 202.5 mins postinjection; type: ADME, organism-based, Macaca fascicularis, Caudate nucleus; conditions: in vivo, 3.375 h
# Medulla [35] = assay: Drug uptake in anesthetized cynomolgus monkey brain medulla after 197.5 mins postinjection; type: ADME, organism-based, Macaca fascicularis; conditions: in vivo
# [36] = Drug uptake in awake rhesus monkey brain caudate after 4.5 mins postinjection; type: ADME, organism-based, Macaca mulatta, Caudate nucleus; conditions: in vivo, 0.075 h
# Midbrain [37] = assay: Drug uptake in anesthetized cynomolgus monkey brain midbrain after 187.5 mins postinjection; type: ADME, organism-based, Macaca fascicularis; conditions: in vivo, 3.125 h
# Putamen [38] = assay: Drug uptake in anesthetized cynomolgus monkey brain putamen after 192.5 mins postinjection; type: ADME, organism-based, Macaca fascicularis; conditions: in vivo
# Thalamus [39] = assay: Drug uptake in anesthetized cynomolgus monkey brain thalamus after 187.5 mins postinjection; type: ADME, organism-based, Macaca fascicularis; conditions: in vivo, 3.125 h
# Medulla [40] = assay: Drug uptake in anesthetized cynomolgus monkey brain medulla after 202.5 mins postinjection; type: ADME, organism-based, Macaca fascicularis; conditions: in vivo, 3.375 h
# Pons [41] = assay: Drug uptake in anesthetized cynomolgus monkey brain pons after 187.5 mins postinjection; type: ADME, organism-based, Macaca fascicularis; conditions: in vivo, 3.125 h
# [42] = Drug uptake in awake rhesus monkey brain cerebellum after 45 mins postinjection; type: ADME, organism-based, Macaca mulatta; conditions: in vivo, 0.75 h
# Thalamus [43] = assay: Drug uptake in anesthetized cynomolgus monkey brain thalamus after 182.5 mins postinjection; type: ADME, organism-based, Macaca fascicularis; conditions: in vivo
# [44] = Drug uptake in anesthetized cynomolgus monkey brain occipital lobe after 197.5 mins postinjection; type: ADME, organism-based, Macaca fascicularis; conditions: in vivo
# [45] = Drug uptake in awake rhesus monkey brain caudate after 95 mins postinjection; type: ADME, organism-based, Macaca mulatta, Caudate nucleus; conditions: in vivo
# [46] = Drug uptake in awake rhesus monkey brain medulla after 35 mins postinjection; type: ADME, organism-based, Macaca mulatta; conditions: in vivo
# Midbrain [47] = assay: Drug uptake in anesthetized cynomolgus monkey brain midbrain after 207.5 mins postinjection; type: ADME, organism-based, Macaca fascicularis; conditions: in vivo
# [48] = Drug uptake in awake rhesus monkey brain frontal lobe after 75 mins postinjection; type: ADME, organism-based, Macaca mulatta; conditions: in vivo, 1.25 h
# [49] = Drug uptake in anesthetized cynomolgus monkey brain cerebellum after 207.5 mins postinjection; type: ADME, organism-based, Macaca fascicularis; conditions: in vivo
# Medulla [50] = assay: Drug uptake in anesthetized cynomolgus monkey brain medulla after 182.5 mins postinjection; type: ADME, organism-based, Macaca fascicularis; conditions: in vivo
# Thalamus [51] = assay: Drug uptake in anesthetized cynomolgus monkey brain thalamus after 202.5 mins postinjection; type: ADME, organism-based, Macaca fascicularis; conditions: in vivo, 3.375 h
# [52] = Drug uptake in awake rhesus monkey brain thalamus after 65 mins postinjection; type: ADME, organism-based, Macaca mulatta; conditions: in vivo
# Caudate [53] = assay: Drug uptake in anesthetized cynomolgus monkey brain caudate after 207.5 mins postinjection; type: ADME, organism-based, Macaca fascicularis, Caudate nucleus; conditions: in vivo
# [54] = Drug uptake in awake rhesus monkey brain cerebellum after 10.5 mins postinjection; type: ADME, organism-based, Macaca mulatta; conditions: in vivo, 0.175 h
# [55] = Drug uptake in awake rhesus monkey brain midbrain after 35 mins postinjection; type: ADME, organism-based, Macaca mulatta; conditions: in vivo
# Medulla [56] = assay: Drug uptake in anesthetized cynomolgus monkey brain medulla after 192.5 mins postinjection; type: ADME, organism-based, Macaca fascicularis; conditions: in vivo
# [57] = Drug uptake in anesthetized cynomolgus monkey brain cerebellum after 192.5 mins postinjection; type: ADME, organism-based, Macaca fascicularis; conditions: in vivo
# [58] = Drug uptake in awake rhesus monkey brain thalamus after 10.5 mins postinjection; type: ADME, organism-based, Macaca mulatta; conditions: in vivo, 0.175 h
# [59] = Drug uptake in awake rhesus monkey brain putamen after 95 mins postinjection; type: ADME, organism-based, Macaca mulatta; conditions: in vivo
# [60] = Drug uptake in awake rhesus monkey brain caudate after 25 mins postinjection; type: ADME, organism-based, Macaca mulatta, Caudate nucleus; conditions: in vivo
# [61] = Drug uptake in awake rhesus monkey brain caudate after 13.5 mins postinjection; type: ADME, organism-based, Macaca mulatta, Caudate nucleus; conditions: in vivo, 0.225 h
# [62] = Drug uptake in awake rhesus monkey brain pons after 75 mins postinjection; type: ADME, organism-based, Macaca mulatta; conditions: in vivo, 1.25 h
# Putamen [63] = assay: Drug uptake in anesthetized cynomolgus monkey brain putamen after 182.5 mins postinjection; type: ADME, organism-based, Macaca fascicularis; conditions: in vivo
# [64] = Drug uptake in awake rhesus monkey brain medulla after 85 mins postinjection; type: ADME, organism-based, Macaca mulatta; conditions: in vivo
smiles,measurement,setting,value
O=C(OCC[18F])C1C2CCC(CC1c1cccc(/C=C\I)c1)N2 (centres undefined),Drug uptake,[1],1.33
same,Ratio,[2],1.2
same,Drug uptake,Putamen [3],2.63
same,Drug uptake,[4],0.09
same,Drug uptake,[5],0.08
same,Drug uptake,Pons [6],2.19
same,Drug uptake,[7],0.16
same,Drug uptake,[8],1.52
same,Drug uptake,Pons [9],2.14
same,Drug uptake,[10],0.16
same,Drug uptake,[11],0.15
same,Drug uptake,Thalamus [12],2.56
same,Ratio,[13],0.9
same,Drug uptake,Pons [14],2.25
same,Drug uptake,[15],0.15
same,Drug uptake,[16],0.12
same,Drug uptake,[17],0.14
same,Drug uptake,[18],0.16
same,Ratio,[19],1.3
same,Drug uptake,[20],0.07
same,Ratio,[21],1
same,Drug uptake,Caudate [22],2.24
same,Drug uptake,[23],0.16
same,Drug uptake,[24],0.17
same,Drug uptake,[25],0.1
same,Ratio,[26],1.1
same,Drug uptake,[27],0.11
same,Drug uptake,[28],1.43
same,Drug uptake,Midbrain [29],3.4
same,Ratio,[30],1.1
same,Drug uptake,[31],1.58
same,Drug uptake,[32],0.08
same,Drug uptake,[33],1.41
same,Drug uptake,Caudate [34],2.21
same,Drug uptake,Medulla [35],2.51
same,Drug uptake,[36],0.06
same,Drug uptake,Midbrain [37],3.37
same,Drug uptake,Putamen [38],2.67
same,Drug uptake,Thalamus [39],2.65
same,Drug uptake,Medulla [40],2.54
same,Drug uptake,Pons [41],2.31
same,Drug uptake,[42],0.12
same,Drug uptake,Thalamus [43],2.74
same,Drug uptake,[44],1.39
same,Drug uptake,[45],0.14
same,Drug uptake,[46],0.12
same,Drug uptake,Midbrain [47],3.17
same,Drug uptake,[48],0.11
same,Drug uptake,[49],1.4
same,Drug uptake,Medulla [50],2.68
same,Drug uptake,Thalamus [51],2.52
same,Drug uptake,[52],0.17
same,Drug uptake,Caudate [53],2.16
same,Drug uptake,[54],0.08
same,Drug uptake,[55],0.14
same,Drug uptake,Medulla [56],2.52
same,Drug uptake,[57],1.49
same,Drug uptake,[58],0.12
same,Drug uptake,[59],0.16
same,Drug uptake,[60],0.13
same,Drug uptake,[61],0.09
same,Drug uptake,[62],0.14
same,Drug uptake,Putamen [63],2.78
same,Drug uptake,[64],0.11
